US4666902A, “Tetrahydropyridazinone derivatives, processes for their preparation and their use” (Cassella Aktiengesellschaft, priority 1983, dated 1987)

Each compound was assayed on experimental thrombosis, arterial (assay: Arterial thrombotic protection, experimental thrombosis in vivo (Meng and Seuter)). Details: 0.3 mg/kg i.p.
Experimental: (§1) The values of the arterial thrombotic protection given in table 1 were determined in rats according to the method of Meng and Seuter (Naunyn-Schmiedeberg's Arch. Pharmacol. 301, 115 (1977)), those of the venous thrombotic protection were determined in rabbits according to the Harbauer method ("Versuche zur Entwicklung eines standardisierten venosen Thrombosemodells am Kaninchen" ("Tests for developing a standardized venous thrombotic model in rabbits"), 17th Angiologic Symposium, Kitzbuhel (1982)).
(§2) Influence on the experimental thrombosis in vivo

Compound | Thrombotic Protection % arterial (rat) [%]
CC(=O)Nc1ccc(C2=NNC(=O)CC2CO)cc1 (centres unmarked) [drawing 46] | 30

Same assay, conditions: 1 mg/kg i.p.

Compound | Thrombotic Protection % arterial (rat) [%]
CC(=O)Nc1ccc(C2=NNC(=O)CC2CO)cc1 (centres unmarked) [drawing 46] | 80
O=C1CC(CO)C(c2ccc[nH]2)=NN1 (centres unmarked) [drawing 50] | 42

These compounds were tested on experimental thrombosis, venous (assay: Venous thrombotic protection, experimental thrombosis in vivo (Harbauer)). Details: 0.3 mg/kg i.p.
Experimental: as §1, §2

Compound | Thrombotic Protection % venous (rabbit) [%]
CC(=O)Nc1ccc(C2=NNC(=O)CC2CO)cc1 (centres unmarked) [drawing 46] | 60

Same assay, conditions: 1 mg/kg i.p.

Compound | Thrombotic Protection % venous (rabbit) [%]
CC(=O)Nc1ccc(C2=NNC(=O)CC2CO)cc1 (centres unmarked) [drawing 46] | 78

Same assay, conditions: 3 mg/kg i.p.

Compound | Thrombotic Protection % venous (rabbit) [%]
O=C1CC(CO)C(c2ccc(OCCn3ccnc3)cc2)=NN1 (centres unmarked) [drawing 47] | 57

Same assay, conditions: 10 mg/kg i.p.

Compound | Thrombotic Protection % venous (rabbit) [%]
O=C1CC(CO)C(c2ccc(Cl)cc2)=NN1 (centres unmarked) [drawing 44] | 57
Cc1nnc(COc2ccc(C3=NNC(=O)CC3CO)cc2)o1 (centres unmarked) [drawing 45] | 50
O=C1CC(CO)C(c2ccc(OCCn3ccnc3)cc2)=NN1 (centres unmarked) [drawing 47] | 86
O=C1CC(CO)C(c2ccc(N3CCCC3=O)cc2)=NN1 (centres unmarked) [drawing 48] | 83

Each compound was assayed on action of arachidonic acid (assay: Influence on the action of arachidonic acid in vivo under anesthesia (Lefort and Vargaftig)). Details: 0.1-1 mg/kg i.v.
Parameters: species or system guinea pig; key: -: no action; (+): weak; +: medium; ++: strong; +++: very strong
Experimental: The values of Table 2 showing the influence on the action of arachidonic acid were determined in guinea pigs under anesthesia using the Lefort and Vargaftig method (Br. J. Pharmac. 63, 35 (1978)).
Influence on the action of arachidonic acid (arachidonic acid
500 g/kg i.v.) in vivo in guinea pigs under anesthesia

Compound | PGI2 Effect: Lowering of blood pressure | TXA2 Effect: Bronchospasm | TXA2 Effect: Thrombocytopenia
CC(=O)Nc1ccc(C2=NNC(=O)CC2CO)cc1 (centres unmarked) [drawing 65] | ++ | ++ | ++

Same assay, conditions: 0.3-3 mg/kg i.v.

Compound | PGI2 Effect: Lowering of blood pressure | TXA2 Effect: Bronchospasm | TXA2 Effect: Thrombocytopenia
O=C1CC(CO)C(c2ccc(N3CCCC3=O)cc2)=NN1 (centres unmarked) [drawing 62] | + | + | ++
COc1ccc(C2=NNC(=O)CC2CO)cc1OC (centres unmarked) [drawing 69] | +++ | ++ | ++

Same assay, conditions: 1-10 mg/kg i.v.

Compound | PGI2 Effect: Lowering of blood pressure | TXA2 Effect: Bronchospasm | TXA2 Effect: Thrombocytopenia
Cc1cc(COc2ccc(C3=NNC(=O)CC3CO)cc2)[nH]c(=O)c1 (centres unmarked) | - | (+) | (+)
O=C1CC(CO)C(c2ccco2)=NN1 (centres unmarked) | - | (+) | (+)
O=C1CC(CO)C(c2ccccc2)=NN1 (centres unmarked) [drawing 53] | (+) | (+) | -
Cc1ccc(C2=NNC(=O)CC2CO)cc1 (centres unmarked) [drawing 54] | (+) | (+) | (+)
COc1ccc(C2=NNC(=O)CC2CO)cc1 (centres unmarked) [drawing 55] | ++ | (+) | -
O=C1CC(CO)C(c2ccc(Cl)cc2)=NN1 (centres unmarked) [drawing 56] | (+) | (+) | (+)
O=C1CC(CO)C(c2cccc([N+](=O)[O-])c2)=NN1 (centres unmarked) [drawing 57] | (+ ) | ++ | +
Cc1nnc(COc2ccc(C3=NNC(=O)CC3CO)cc2)o1 (centres unmarked) [drawing 58] | + | ++ | ++
COc1ccc(C2=NNC(=O)CC2COC(=O)c2cccnc2)cc1OC (centres unmarked) [drawing 59] | - | (+) | (+)
CC(=O)Nc1ccc(C2=NN(C)C(=O)CC2CO)cc1 (centres unmarked) [drawing 61] | (+) | (+) | (+)
O=C1CC(CO)C(c2ccc[nH]2)=NN1 (centres unmarked) [drawing 63] | (+) | ++ | +++
O=C1CC(CO)C(c2ccc(OCCn3ccnc3)cc2)=NN1 (centres unmarked) [drawing 66] | (+) | + | ++
O=C1CC(CO)C(c2c[nH]c3ccccc23)=NN1 (centres unmarked) [drawing 70] | (+) | + | +++
COc1ccc(C2=NNC(=O)CC2COC(=O)COc2ccc(Cl)cc2)cc1OC (centres unmarked) [drawing 71] | + | (+) | -
O=C1CC(CO)C(c2ccc(OCc3cccnc3)cc2)=NN1 (centres unmarked) [drawing 73] | - | + | +

Same assay, conditions: 3-10 mg/kg i.v.

Compound | PGI2 Effect: Lowering of blood pressure | TXA2 Effect: Bronchospasm | TXA2 Effect: Thrombocytopenia
O=C1CC(CO)C(c2cccs2)=NN1 (centres unmarked) [drawing 68] | (+) | (+) | (+)

What follows are compounds tested on thrombocyte aggregation induced by arachidonic acid (assay: Inhibition of thrombocyte aggregation in vitro (Born), arachidonic acid). Details: induced by 0.36 mM of arachidonic acid.
Type: cell-based
Experimental: (§3) The values of tables 3 to 5 showing the inhibition of the thrombocytic aggregation were determined in vitro according to the Born method (J. Physiol. 162 67 P (1962)) using arachidonic acid, thrombin or adenosine diphosphate as aggregation agent.
Inhibition of thrombocyte aggregation in vitro (according to BORN)
induced by 0.36 mM of arachidonic acid

Compound | IC50 [µM]
Cc1cc(COc2ccc(C3=NN(C)C(=O)CC3CO)cc2)[nH]c(=O)c1 (centres unmarked) | 15
O=C1CC(CO)C(c2ccc(OCCn3ccnc3)cc2)=NN1 (centres unmarked) [drawing 80] | 2
CC(=O)Nc1ccc(C2=NN(C)C(=O)CC2CO)cc1 (centres unmarked) [drawing 82] | > 100

The remaining lines, values ahead:

IC50 [µM] | Compound
40 | COc1ccc(C2=NN(C)C(=O)CC2CO)cc1OC (centres unmarked)
6 | COc1cc(C2=NNC(=O)CC2CO)cc(OC)c1OC (centres unmarked)
5 | O=C1CC(CO)C(c2ccccc2)=NN1 (centres unmarked) [drawing 75]
1.5 | O=C1CC(CO)C(c2cccc([N+](=O)[O-])c2)=NN1 (centres unmarked) [drawing 78]
1 | Cc1nnc(COc2ccc(C3=NNC(=O)CC3CO)cc2)o1 (centres unmarked) [drawing 79]
0.3 | N#Cc1ccc(C2=NNC(=O)CC2CO)cc1 (centres unmarked) [drawing 81]
4 | COc1ccc(C2=NNC(=O)CC2COC(=O)COc2ccc(Cl)cc2)cc1OC (centres unmarked) [drawing 83]
0.45 | O=C1CC(CO)C(c2ccc(OCc3cccnc3)cc2)=NN1 (centres unmarked) [drawing 85]
50 | O=C1CC(CO)C(c2cccs2)=NN1 (centres unmarked) [drawing 86]
0.4 | O=C1CC(CO)C(c2ccc(N3CCCC3=O)cc2)=NN1 (centres unmarked) [drawing 87]
0.6 | COc1ccc(C2=NNC(=O)CC2CO)cc1OC (centres unmarked) [drawing 88]
0.9 | O=C1CC(CO)C(c2ccc(Cl)cc2)=NN1 (centres unmarked) [drawing 90]
0.2 | CC(=O)Nc1ccc(C2=NNC(=O)CC2CO)cc1 (centres unmarked) [drawing 91]
0.55 | O=C1CC(CO)C(c2c[nH]c3ccccc23)=NN1 (centres unmarked) [drawing 93]
30 | COc1ccc(C2=NNC(=O)CC2COC(=O)c2cccnc2)cc1OC (centres unmarked) [drawing 94]

Each compound was assayed on thrombocyte aggregation induced by thrombin (assay: Inhibition of thrombocyte aggregation in vitro (Born), thrombin). Details: induced by 0.2-0.4 N.I.H. units/ml (thrombin).
Type: cell-based
Experimental: as §3
Inhibition of thrombocyte aggregation in vitro
(according to BORN) induced by 0.2-0.4 N.I.H. units/ml

IC50 [µM] | Compound
2.5 | COc1ccc(C2=NNC(=O)CC2CO)cc1 (centres unmarked) [drawing 98]
6 | O=C1CC(CO)C(c2ccc(Cl)cc2)=NN1 (centres unmarked) [drawing 99]
0.7 | CC(=O)Nc1ccc(C2=NNC(=O)CC2CO)cc1 (centres unmarked) [drawing 100]
2 | COc1ccc(C2=NNC(=O)CC2CO)cc1OC (centres unmarked) [drawing 101]
> 100 | COc1ccc(C2=NNC(=O)CC2COC(=O)COc2ccc(Cl)cc2)cc1OC (centres unmarked) [drawing 102]

The compounds below were run on thrombocyte aggregation induced by ADP (assay: Inhibition of thrombocyte aggregation in vitro (Born), ADP). Details: induced by 10 μM ADP.
Type: cell-based
Experimental: as §3
Inhibition of thrombocyte aggregation in vitro (according to
BORN) induced by 10 μM ADP

IC50 [µM] | Compound
> 100 | O=C1CC(CO)C(c2ccccc2)=NN1 (centres unmarked) [drawing 105]
150 | Cc1ccc(C2=NNC(=O)CC2CO)cc1 (centres unmarked) [drawing 106]
50 | COc1ccc(C2=NNC(=O)CC2CO)cc1 (centres unmarked) [drawing 107]
70 | O=C1CC(CO)C(c2ccc(Cl)cc2)=NN1 (centres unmarked) [drawing 108]
10 | CC(=O)Nc1ccc(C2=NNC(=O)CC2CO)cc1 (centres unmarked) [drawing 109]
9 | COc1ccc(C2=NNC(=O)CC2CO)cc1OC (centres unmarked) [drawing 110]
20 | Cc1nnc(COc2ccc(C3=NNC(=O)CC3CO)cc2)o1 (centres unmarked) [drawing 111]
150 | O=C1CC(CO)C(c2ccc(OCCn3ccnc3)cc2)=NN1 (centres unmarked) [drawing 112]
20 | O=C1CC(CO)C(c2ccc(N3CCCC3=O)cc2)=NN1 (centres unmarked) [drawing 113]
36 | O=C1CC(CO)C(c2ccc(OCc3cccnc3)cc2)=NN1 (centres unmarked) [drawing 114]
20 | N#Cc1ccc(C2=NNC(=O)CC2CO)cc1 (centres unmarked) [drawing 115]
